Measured values: patent US20260284005A1, “INHIBITING MITOGEN-ACTIVATED PROTEIN (MAP)/ERK KINASE (MEK)1 AND MEK2 AND RELATED METHODS OF TREATMENT” (priority 2023, published 2026)
Read-outs that look alike come from different tables or passages of the source. Each block holds one compound with its values, some of them ahead of it.

Legend:
CORL23 cells = test: 3D-TGA; assay type: cell-based; settings: Homo sapiens, COR-L23, CORL23, LUN, KRAS G12V, ALK R317T, agent alone
Experimental: (§1) Cells were seeded in 3D cultures in a black-walled, clear-bottom, non-tissue culture treated, 384-well plate (3000 cells per well) using a 1:1 mixture of BME and a custom media and grown in a humidified incubator with 5% CO2 and 5% O2, which approximates capillary levels for each gas, at 37° C. […] Cells were assessed for cell proliferation using EdU cell proliferation staining. […] Cells were permeabilized with 30 μL of filtered 0.5% Triton X-100 in PBS for 20 minutes at room temperature. Samples were washed twice gently with PBS. Cells were stained utilizing click-iT chemistry by adding 20 μL of staining cocktail containing 2 mM copper sulfate, 8 μM sulfo-Cy5-azide, and 20 mg/ml ascorbic acid in PBS and incubated 30-60 minutes at room temperature in dark. […] Plates were imaged with the Molecular Devices Pico ImageXpress. Images were segmented and percentage of cells with EdU incorporation was quantified to calculate antiproliferative effects of the drugs.
(§2) Five (5)-ethynyl-2′-deoxyuridine (EdU) data was represented as percentage EdU positive cells quantified by high content imaging from the Molecular Devices ImageXpress® Pico.

NCI-H2087 cells = test: 3D-TGA; assay type: cell-based; settings: Homo sapiens, NCI-H2087, LUN, NRAS Q61K, ALK S553A, agent alone
Experimental: as §1, §2

NCI-H1792 cells = test: 3D-TGA; assay type: cell-based, human; settings: Homo sapiens, NCI-H1792, LUN, KRAS G12C
A549 cells = test: 3D-TGA; assay type: cell-based, human; settings: Homo sapiens; A549, LUN, KRAS G12S; agent alone; read-out: IC50 in 3D-TGA Talazoparib
Experimental: as §1, §2

[1] = tested on: tumor models (cell lines); test: Humanized 3D tumor growth assay (3D-TGA), tumor model panel / other cell lines; assay type: cell-based, human; settings: Homo sapiens, agent alone
From the text: The humanized 3D tumor growth assay (3D-TGA) is an extracellular matrix (ECM)-based, 3D tumor model that more faithfully mimics the human tumor microenvironment (TME) with the goal of improving translational fidelity to patients. See Casneuf T, et al., “Interleukin-6 is a potential therapeutic target in interleukin-6 dependent, estrogen receptor-α-positive breast cancer,” Breast Cancer (Dove Med Press). […] MEK inhibition in the 3D-TGA. […]
All cell lines were validated by IDEXX upon receipt and assay setup. See Appendix for full cell line list.
as §1, §2

LU99 cells = test: 3D-TGA; assay type: cell-based, human; settings: Homo sapiens, Lu-99, read-out: IC50 in 3D-TGA, KRAS G12C inhibitor alone
Experimental: as §1, §2

NCI-H2030 cells = test: 3D-TGA; assay type: cell-based, human; settings: Homo sapiens, NCI-H2030, read-out: IC50 in 3D-TGA, KRAS G12C inhibitor alone
Experimental: as §1, §2

NCI-H2122 cells = test: 3D-TGA; assay type: cell-based, human; settings: Homo sapiens, NCI-H2122, read-out: IC50 in 3D-TGA, KRAS G12C inhibitor alone
Experimental: as §1, §2

HCC-44 cells = test: 3D-TGA; assay type: cell-based, human; settings: Homo sapiens, HCC44, read-out: IC50 in 3D-TGA, KRAS G12C inhibitor alone
Experimental: as §1, §2

NCI-H358 cells = test: 3D-TGA; assay type: cell-based, human; settings: Homo sapiens; NCI-H358, LUN, KRAS G12C; read-out: IC50 in 3D-TGA, KRAS G12C inhibitor alone
PANC-1 cells = test: 3D-TGA; assay type: cell-based, human; settings: Homo sapiens; PANC-1, PAN, KRAS G12D; read-out: IC50 in 3D-TGA, agent alone
Experimental: as §1, §2

SNU-1197 cells = test: 3D-TGA; assay type: cell-based, human; settings: Homo sapiens, read-out: IC50 in 3D-TGA, agent alone
Experimental: as §1, §2

SW626 cells = test: 3D-TGA; assay type: cell-based, human; settings: Homo sapiens, SW626, read-out: IC50 in 3D-TGA, agent alone
Experimental: as §1, §2

CL-40 cells = test: 3D-TGA; assay type: cell-based, human; settings: Homo sapiens, read-out: IC50 in 3D-TGA, agent alone
Experimental: as §1, §2

RCM-1 cells = test: 3D-TGA; assay type: cell-based, human; settings: Homo sapiens, RCM-1, read-out: IC50 in 3D-TGA, agent alone
Experimental: as §1, §2

HT-29 cells = test: 3D-TGA; assay type: cell-based, human; settings: Homo sapiens, HT-29, read-out: IC50 in 3D-TGA, agent alone
Experimental: as §1, §2

LS1034 cells = test: 3D-TGA; assay type: cell-based, human; settings: Homo sapiens, LS-1034; LS1034, COL, KRAS A146T; read-out: IC50 in 3D-TGA, agent alone
Experimental: as §1, §2

[2] = tested on: MIA PaCa-2 (KRAS G12C) pancreatic xenograft; test: MIA PaCa-2 pancreatic xenograft tumor model; assay type: in vivo, athymic nude mice; settings: MIA PaCa-2 KRAS G12C xenograft, 21 days
From the text: Gemcitabine (antimetabolite), nab-paclitaxel (taxane) and fluorouracil (5-FU; antimetabolite) were commercially purchased. All studies started with 12 animals, per group. Mice within specific groups randomized for cross-over of treatments (≥day 42). […] Additive models: MIA PaCa-2, PA-TU-8988S, CFPAC-1, HPAF-II, Panc 03.27, PSN-1, Panc 10.05, Capan-1, HPAC, PANC-1.

[3] = read-out: IC50 in 3D-TGA Brigatinib
[4] = read-out: IC50 in 3D-TGA Lorlatinib
[5] = read-out: IC50 in 3D-TGA, KRAS G12C inhibitor alone

- IC50 (CORL23 cells; [3]): 1 µM
- IC50 (NCI-H2087 cells; [3]): 1 µM
Compound: COc1cc(N2CCC(N3CCN(C)CC3)CC2)ccc1Nc1ncc(Cl)c(Nc2ccccc2P(C)(C)=O)n1 [Brigatinib, brigatinib]

- IC50 (NCI-H1792 cells; agent alone, read-out: IC50 in 3D-TGA Talazoparib): 0.5 to 1 µM
- IC50 (A549 cells): > 1 µM
- IC50 ([1]; HL-60, HL-60, AML, NRAS Q61L, read-out: IC50 in 3D-TGA Talazoparib): > 1 µM
- IC50 ([1]; NCI-H1734, NCI-H1734, LUN, KRAS G13C, read-out: IC50 in 3D-TGA Talazoparib): > 1 µM
- IC50 ([1]; THP-1, THP-1, AML, NRAS G12D, read-out: IC50 in 3D-TGA Talazoparib): > 1 µM
Compound: Cn1ncnc1[C@H]1c2n[nH]c(=O)c3cc(F)cc(c23)N[C@@H]1c1ccc(F)cc1 [Talazoparib, talazoparib]

- IC50 ([1]; HL-60, HL-60, AML, NRAS Q61L, read-out: IC50 in 3D-TGA Decitabine): 1 µM
- IC50 ([1]; NB4, AML, KRAS Amp, read-out: IC50 in 3D-TGA Decitabine): 1 µM
- IC50 ([1]; OCI-AML-3, OCI-AML3, AML, NRAS Q61L, read-out: IC50 in 3D-TGA Decitabine): 1 µM
- IC50 ([1]; PL-21, PL-21, AML, KRAS A146V, read-out: IC50 in 3D-TGA Decitabine): 1 µM
- IC50 ([1]; TF-1, AML, NRAS Q61P, read-out: IC50 in 3D-TGA Decitabine): 0.05 µM
- IC50 ([1]; THP-1, THP-1, AML, NRAS G12D, read-out: IC50 in 3D-TGA Decitabine): 1 µM
Compound: Nc1ncn([C@H]2C[C@H](O)[C@@H](CO)O2)c(=O)n1 [Decitabine, decitabine]

- IC50 ([1]; HL-60, HL-60, AML, NRAS Q61L, read-out: IC50 in 3D-TGA Azacitidine): 1 µM
- IC50 ([1]; KHM-1B, MM, NRAS G12C/KRAS G12C, read-out: IC50 in 3D-TGA Azacitidine): 0.1 to 0.5 µM
- IC50 ([1]; NB4, AML, KRAS Amp, read-out: IC50 in 3D-TGA Azacitidine): 1 µM
- IC50 ([1]; OCI-AML-3, OCI-AML3, AML, NRAS Q61L, read-out: IC50 in 3D-TGA Azacitidine): 1 µM
- IC50 ([1]; PL-21, PL-21, AML, KRAS A146V, read-out: IC50 in 3D-TGA Azacitidine): 0.5 to 1 µM
- IC50 ([1]; TF-1, AML, NRAS Q61P, read-out: IC50 in 3D-TGA Azacitidine): 1 µM
- IC50 ([1]; THP-1, THP-1, AML, NRAS G12D, read-out: IC50 in 3D-TGA Azacitidine): 1 µM
Compound: Nc1ncn([C@@H]2O[C@H](CO)[C@@H](O)[C@H]2O)c(=O)n1 [Azacitidine, azacitidine]

- IC50 (CORL23 cells; [4]): 1 µM
- IC50 (NCI-H2087 cells; [4]): 1 µM
Compound: C[C@H]1Oc2cc(cnc2N)-c2c(nn(C)c2C#N)CN(C)C(=O)c2ccc(F)cc21 [Lorlatinib]

Compound: C=C(F)C(=O)N1CCN(c2nc(OC[C@@H]3CCCN3C)nc3c2CCN(c2cccc4cccc(Cl)c24)C3)C[C@@H]1CC#N [adagrasib]
- IC50 (NCI-H1792 cells; [5]): > 1 µM
- IC50 (LU99 cells): > 1 µM
- IC50 (NCI-H2030 cells): < 0.05 µM
- IC50 (NCI-H2122 cells): > 1 µM
- IC50 (HCC-44 cells): > 1 µM
- IC50 (NCI-H358 cells): 0.05 to 0.1 µM

Compound: CC(=O)O[C@H]1C(=O)[C@@]2(C)[C@H]([C@H](OC(=O)c3ccccc3)[C@]3(O)C[C@H](OC(=O)[C@H](O)[C@@H](NC(=O)c4ccccc4)c4ccccc4)C(C)=C1C3(C)C)[C@]1(OC(C)=O)CO[C@@H]1C[C@@H]2O [Paclitaxel, paclitaxel]
- IC50 (PANC-1 cells): 1 µM
- IC50 (SNU-1197 cells): 0.1 to 0.5 µM
- IC50 (SW626 cells): < 0.05 µM
- IC50 (CL-40 cells): < 0.05 µM
- IC50 (RCM-1 cells): 0.1 to 0.5 µM
- IC50 (HT-29 cells): < 0.05 µM
- IC50 (LS1034 cells): 1 µM

Compound: C=CC(=O)N1CCN(c2nc(=O)n(-c3c(C)ccnc3C(C)C)c3nc(-c4c(O)cccc4F)c(F)cc23)[C@@H](C)C1 [sotorasib]
- IC50 (NCI-H1792 cells; [5]): > 1 µM
- BWL [2]: insignificant BWL
- IC50 (LU99 cells): > 1 µM
- IC50 (NCI-H2030 cells): < 0.05 µM
- IC50 (NCI-H2122 cells): > 1 µM
- IC50 (HCC-44 cells): > 1 µM
- IC50 (NCI-H358 cells): 0.1 to 0.5 µM

Compound: COc1cccc2c1C(=O)c1c(O)c3c(c(O)c1C2=O)C[C@@](O)(C(C)=O)C[C@@H]3O[C@H]1C[C@H](N)[C@H](O)[C@H](C)O1 [Daunorubicin, daunorubicin]
- IC50 ([1]; HL-60, HL-60, AML, NRAS Q61L, read-out: IC50 in 3D-TGA Daunorubicin): 0.0676 µM
- IC50 ([1]; NB4, AML, KRAS Amp, read-out: IC50 in 3D-TGA Daunorubicin): 0.0632 µM
- IC50 ([1]; OCI-AML-3, OCI-AML3, AML, NRAS Q61L, read-out: IC50 in 3D-TGA Daunorubicin): 0.028 µM
- IC50 ([1]; PL-21, PL-21, AML, KRAS A146V, read-out: IC50 in 3D-TGA Daunorubicin): 0.0641 µM
- IC50 ([1]; TF-1, AML, NRAS Q61P, read-out: IC50 in 3D-TGA Daunorubicin): 0.0562 µM
- IC50 ([1]; THP-1, THP-1, AML, NRAS G12D, read-out: IC50 in 3D-TGA Daunorubicin): 0.119 µM

- IC50 ([1]; KHM-1B, MM, NRAS G12C/KRAS G12C, read-out: IC50 in 3D-TGA Bortezomib): 0.5 to 1 µM
- IC50 ([1]; L-363, L-363, MM, NRAS Q61H, read-out: IC50 in 3D-TGA Bortezomib): 1 µM
- IC50 ([1]; MM1.S, MM.1S, MM, KRAS G12A, read-out: IC50 in 3D-TGA Bortezomib): 0.05 to 0.1 µM
- IC50 ([1]; RPMI-8226, RPMI-8226, MM, KRAS G12A, read-out: IC50 in 3D-TGA Bortezomib): 0.1 to 0.5 µM
Compound: CC(C)C[C@H](NC(=O)[C@H](Cc1ccccc1)NC(=O)c1cnccn1)B(O)O [Bortezomib, bortezomib]
